Measurements as given in paper PMC12040169 (PLOS Biology, 2025).

Assay: in vitro
Settings: human, hela cells, % viability

Row | Structure (SMILES) | viability at 28.5 h, 10 µM [%]
1 | O=C(O)c1nccnc1C(=O)NCCc1c[nH]c2ccc(Cl)cc12 [CBK286630] | 93.8
2 | CCOC(=O)N1CCN(C(C(=O)O)c2c[nH]c3ccc(C)cc23)CC1 (stereo not shown) [CBK286632] | 93.1
3 | CC(=O)N1CCN(C(C(=O)O)c2c[nH]c3ccc(NC(=O)C(C)C)cc23)CC1 (stereo not shown) [CBK286634] | 89.7
4 | O=C(O)C1CCN(C(=O)[C@@H]2Cc3ccccc3CN2)CC1 [CBK286638] | 91
5 | COc1ccc(/C=C/C(=O)C2CC2)c(C(=O)O)c1OC [CBK286639] | 97
6 | Cc1ccc(C2C(C(=O)c3ccccc3)=C(O)C(=O)N2CCC(=O)O)cc1 (stereo not shown) [CBK286642] | 81.1
7 | O=C(O)C(c1c[nH]c2ccccc12)N1CCN(S(=O)(=O)c2ccccc2)CC1 (stereo not shown) [CBK286643] | 83.6
8 | O=C(O)CNC(=O)Cn1ccc2ccc(OCc3ccccc3)cc21 [CBK286644] | 85.9
9 | CC(=O)N1CCN(C(C(=O)O)c2cn(Cc3ccccc3)c3ccc(C(=O)O)cc23)CC1 (stereo not shown) [CBK286648] | 79.6
10 | CC(SC1CCc2ccccc2NC1=O)C(=O)O (stereo not shown) [CBK286652] | 87.1
11 | Cc1ccc(C2=NO[C@@](CC(=O)O)(C(=O)Nc3ccc4c(c3)OCCO4)C2)cc1 [CBK286653] | 85.1
12 | O=C(CCNC(Cc1ccccc1)C(=O)O)c1ccccc1 (stereo not shown) [CBK286655] | 83
13 | O=C(O)[C@@H]1CCCN1C(=O)C1CCC(Cn2nnc3ccccc3c2=O)CC1 (stereo partly shown) [CBK286658] | 88.6
14 | CC(C)C1C(=O)Nc2ccccc2N1C(=O)NCCC(=O)O (stereo not shown) [CBK286659] | 87.4
15 | O=C(O)CSc1nc2nc3c(cc2c(=O)n1Cc1ccccc1)CCCC3 [CBK286662] | 86.4
16 | O=C(O)CNC(=O)Cn1ccc2cc(OCc3ccccc3)ccc21 [CBK286665] | 81.2
17 | COCCNC(=O)N[C@H](Cc1ccccc1)C(=O)O [CBK286667] | 85.5

Row | Structure (SMILES) | viability at 28.5 h, 10 µM [%]
18 | CC(C)[C@H](NC(=O)C1CC(=O)N(c2ccc(F)cc2)C1)C(=O)N1CCC(C(=O)O)CC1 (stereo partly shown) [CBK286669] | 94.8
19 | COc1ccc(OC)c(C2=NO[C@@](CC(=O)O)(C(=O)NC3CCCCC3)C2)c1 [CBK286672] | 92.1
20 | O=C(O)C(c1c[nH]c2cc(F)ccc12)N1CCN(c2ccccc2)CC1 (stereo not shown) [CBK286675] | 102
21 | O=C1CC(c2ccc(C(=O)O)cc2)c2c(-c3ccc(Cl)cc3)n[nH]c2N1 (stereo not shown) [CBK286684] | 97
22 | O=C(O)c1[nH]c(=O)[nH]c(=O)c1CN1CCCCC1 [CBK286688] | 96.8
23 | CC(C)(C)OC(=O)N1CCC(C(=O)NC[C@H](CC(=O)O)c2ccc(Cl)cc2)CC1 [CBK286691] | 98
24 | Cc1c(C(=O)O)sc2ncn(CCCOc3ccc(Cl)cc3)c(=O)c12 [CBK286695] | 106
25 | COc1ccc(-c2cc(=O)oc3cc(OC(C)C(=O)O)ccc23)cc1 (stereo not shown) [CBK286696] | 105
26 | Cc1oc2cc(OCC(=O)NCC(=O)O)ccc2c(=O)c1-c1ccc(Cl)cc1 [CBK286697] | 99.6
27 | Cc1nn2c(O)c(CCO)c(C(=O)O)nc2c1-c1ccc(Cl)cc1 [CBK286699] | 108
28 | CC(C)Cc1ccc(C(CC(=O)O)C(=O)O)cc1 (stereo not shown) [CBK286703] | 109
29 | O=C(O)Cn1cc(C(=O)COc2ccccc2)c2ccccc21 [CBK286708] | 85.4
30 | C[C@@H](NC(=O)CCN1C(=O)[C@@H]2Cc3ccccc3CN2C1=O)C(=O)O [CBK286709] | 93.7
31 | Cc1ccc2c(CC(=O)N3CCC(C(=O)O)CC3)coc2c1 [CBK286711] | 79.9
32 | CC(=O)C1=C(O)C(=O)N(CC(=O)O)C1c1ccc(Br)cc1 (stereo not shown) [CBK286712] | 89.9
33 | Cc1cccc(C)c1NC(=O)CC(CN1CCN(Cc2c(C)noc2C)CC1)C(=O)O (stereo not shown) [CBK286715] | 89.8
34 | CCc1c(Cc2[nH]c(C)c(C(C)=O)c2C)[nH]c(C(=O)O)c1C [CBK286717] | 91.3
